Data on 25 substances can be found in patent US11066668B2, “Compositions and methods for modulation of IKBKAP splicing” (Ionis Pharmaceuticals, Inc., priority 2012, dated 2021).

Oligonucleotides are written 5' to 3', each unit as a sugar letter and its base; * is a phosphorothioate linkage, no mark a phosphodiester; rarer units and linkages stand in square brackets, end groups in braces. Plain capitals give the bases only. e = 2'-O-(2-methoxyethyl) (MOE); [5mC] = 5-methylcytosine

The test system of the first data set is IKBKAP pre-mRNA (mt19-21 minigene). The experiment in a line: Exon 20 inclusion in HEK-293 cells harboring the mt19-21 IKBKAP minigene (RT-PCR). Format: cell-based, human. The note with it: HEK-293 with mt19-21 minigene, 0.007 nmol oligonucleotide. The protocol:
Antisense oligonucleotides were designed targeting a human IKBKAP nucleic acid and were tested for their effects on IKBKAP pre-mRNA in vitro. Together, the overlapping antisense oligonucleotides spanned the entire 74-nucleotide region of the IKBKAP exon 20 sequence, as well as the 100-nucleotide intronic regions immediately upstream and downstream of exon 20. The antisense oligonucleotides are presented in Table 1, and were designed as uniform 2′-O-methoxyethyl ribose (MOE) oligonucleotides with phosphate backbones. Each oligonucleotide is 15 nucleosides in length. All cytosine residues throughout the oligonucleotide are 5-methylcytosines. ‘Start Site’ indicates the 5′-most nucleoside to which the oligonucleotide is targeted in the human gene sequence. “Stop site” indicates the 3′-most nucleoside to which the oligonucleotide is targeted in the human gene sequence. Each oligonucleotide listed in Table 1 is targeted to the human IKBKAP genomic sequence (the complement of GENBANK Accession No NT_008470.16 truncated from nucleotides 13290828 to Ser. No. 13/358,424, designated herein as SEQ ID NO: 1). ISIS 414161 has one mismatch with SEQ ID NO: 1.
Cultured HEK-293 cells harboring the mt19-21 minigene vector construct at a density of 7×10^5 cells per well were transfected using electroporation (Gene Pulsar II apparatus, Bio-Rad) with 0.007 nmol antisense oligonucleotide, as previously described (Hua, Y., et al., 2007. PLoS Biol 5:e73). […] These oligonucleotides served as controls for non-specific effects of uniform MOE oligonucleotides with phosphate backbones. Cells harboring the wt19-21 minigene and the mt19-21 minigene alone were also cultured and were used as controls for exon 20 inclusion levels. Two days later, cDNA synthesized from total RNA extracted from HEK-293 cells was amplified using the forward primer pCDNAF and reverse primer sequence IKAP21R4 to assay the splicing pattern of expressed RNAs by RT-PCR. To calculate exon 20 inclusion levels, the PCR amplicons were labeled with α^32P-dCTP. The PCR products were then separated by native PAGE, followed by phosphorimage analysis on a FUJIFILM FLA-5100 instrument (Fuji Medical Systems USA Inc.). The band intensities were quantified using Multi Gauge software Version 2.3 (FUJIFILM), and values were normalized for the G+C content according to the DNA sequence.
Treatment with antisense oligonucleotides targeting the 3′ and 5′ splice sites caused increased skipping of exon 20.
Additional oligonucleotides were designed targeting the first 30-nucleotide stretch of ISS-40. These oligonucleotides were designed by choosing sequences shifted in one nucleotide increments upstream and downstream (i.e., a “microwalk”) of ISS-40, starting from the +6 position in exon 20. The antisense oligonucleotides are presented in Table 2 and FIG. 4D, and were designed as uniform 2′-O-methoxyethyl ribose (MOE) oligonucleotides with phosphate backbones. Each oligonucleotide is 20 nucleosides in length. All cytosine residues throughout the oligonucleotide are 5-methylcytosines. ‘Start Site’ indicates the 5′-most nucleoside to which the oligonucleotide is targeted in the human gene sequence. “Stop site” indicates the 3′-most nucleoside to which the oligonucleotide is targeted in the human gene sequence. Each oligonucleotide listed in Table 2 is targeted to intron 20 of the human IKBKAP genomic sequence (the complement of GENBANK Accession No NT_008470.16 truncated from nucleotides 13290828 to Ser. No. 13/358,424, designated herein as SEQ ID NO: 1). These oligonucleotides were tested in vitro.
Cultured HEK-293 cells harboring the mt19-21 minigene vector construct at a density of 7×10^5 cells per well were transfected using electroporation (Gene Pulsar II apparatus, Bio-Rad) with 0.007 nmol antisense oligonucleotide, as previously described (Hua, Y., et al., 2007. PLoS Biol 5:e73). […]
As for “ISIS 414136: uniform 2′-MOE 15-mer, phosphate backbone; ATAGCCAGGATACAC, SEQ ID NO 15, intron 19 (eAeTeAeGe[5mC]e[5mC]eAeGeGeAeTeAe[5mC]eAe[5mC]; splice-switching)”, the “effect on exon 20 inclusion/skipping, in words” value was “positive effect on exon 20 inclusion”. On the same count and under the same terms, for “ISIS 414163: uniform 2′-MOE 15-mer, phosphate backbone; ACTAGTCGCAAACAG, SEQ ID NO 42, intron 20 (eAe[5mC]eTeAeGeTe[5mC]eGe[5mC]eAeAeAe[5mC]eAeG; splice-switching)” the value was “markedly increased inclusion of exon 20”.

Still in this data set, the particulars now being: Table 1; HEK-293 with mt19-21 minigene, 0.007 nmol oligonucleotide by electroporation, RT-PCR two days later.
In the case of “ISIS 414159: uniform 2′-MOE 15-mer, phosphate backbone; TTGTCCAACCACTTC, SEQ ID NO 38, exon 20 (eTeTeGeTe[5mC]e[5mC]eAeAe[5mC]e[5mC]eAe[5mC]eTeTe[5mC]; splice-switching)”, the “% inclusion (exon 20)” value came to 2%. Still for that read-out and setting: in the case of “ISIS 414144: uniform 2′-MOE 15-mer, phosphate backbone; TTAAAGCAGTAACAT, SEQ ID NO 23, intron 19 (eTeTeAeAeAeGe[5mC]eAeGeTeAeAe[5mC]eAeT; splice-switching)” it was 7%. Still for that read-out and setting: in the case of “ISIS 414136: uniform 2′-MOE 15-mer, phosphate backbone; ATAGCCAGGATACAC, SEQ ID NO 15, intron 19 (eAeTeAeGe[5mC]e[5mC]eAeGeGeAeTeAe[5mC]eAe[5mC]; splice-switching)” it was 45%; in that of “ISIS 414171: uniform 2′-MOE 15-mer, phosphate backbone; AATAAAATACTTATT, SEQ ID NO 50, intron 20 (eAeAeTeAeAeAeAeTeAe[5mC]eTeTeAeTeT; splice-switching)”, 32%. Still for that read-out and setting: in the case of “ISIS 414163: uniform 2′-MOE 15-mer, phosphate backbone; ACTAGTCGCAAACAG, SEQ ID NO 42, intron 20 (eAe[5mC]eTeAeGeTe[5mC]eGe[5mC]eAeAeAe[5mC]eAeG; splice-switching)” it was 74%; in that of “ISIS 414134: uniform 2′-MOE 15-mer, phosphate backbone; TACACCATTTTACCT, SEQ ID NO 13, intron 19 (eTeAe[5mC]eAe[5mC]e[5mC]eAeTeTeTeTeAe[5mC]e[5mC]eT; splice-switching)”, 25%; in that of “ISIS 414169: uniform 2′-MOE 15-mer, phosphate backbone; TTATTGTCTTCACAC, SEQ ID NO 48, intron 20 (eTeTeAeTeTeGeTe[5mC]eTeTe[5mC]eAe[5mC]eAe[5mC]; splice-switching)”, 21%.

Regarding “ISIS 414149: uniform 2′-MOE 15-mer, phosphate backbone; CAACTTCTAAGTTTC, SEQ ID NO 28, exon 20 (e[5mC]eAeAe[5mC]eTeTe[5mC]eTeAeAeGeTeTeTe[5mC]; splice-switching)”, the “% inclusion (exon 20)” value turned out to be 20%. Turning to “ISIS 414158: uniform 2′-MOE 15-mer, phosphate backbone; CCAACCACTTCCGAA, SEQ ID NO 37, exon 20 (e[5mC]e[5mC]eAeAe[5mC]e[5mC]eAe[5mC]eTeTe[5mC]e[5mC]eGeAeA; splice-switching)”, the “% inclusion (exon 20)” value came out at 1%. Still for that read-out and setting: in the case of “ISIS 414132: uniform 2′-MOE 15-mer, phosphate backbone; TACCTAACTCTTCAC, SEQ ID NO 11, intron 19 (eTeAe[5mC]e[5mC]eTeAeAe[5mC]eTe[5mC]eTeTe[5mC]eAe[5mC]; splice-switching)” it was 19%; in that of “ISIS 414131: uniform 2′-MOE 15-mer, phosphate backbone; AACTCTTCACAGAGA, SEQ ID NO 10, intron 19 (eAeAe[5mC]eTe[5mC]eTeTe[5mC]eAe[5mC]eAeGeAeGeA; splice-switching)”, 30%. The same measure, in the same setting: in the case of “ISIS 414130: uniform 2′-MOE 15-mer, phosphate backbone; TTCACAGAGAATTAC, SEQ ID NO 9, intron 19 (eTeTe[5mC]eAe[5mC]eAeGeAeGeAeAeTeTeAe[5mC]; splice-switching)” it was 25%; in that of “ISIS 414170: uniform 2′-MOE 15-mer, phosphate backbone; AATACTTATTGTCTT, SEQ ID NO 49, intron 20 (eAeAeTeAe[5mC]eTeTeAeTeTeGeTe[5mC]eTeT; splice-switching)”, 32%. Same read-out and setting: in the case of “ISIS 414174: uniform 2′-MOE 15-mer, phosphate backbone; AGTTCTCGAAATTGT, SEQ ID NO 53, intron 20 (eAeGeTeTe[5mC]eTe[5mC]eGeAeAeAeTeTeGeT; splice-switching)” it was 29%; in that of “ISIS 414133: uniform 2′-MOE 15-mer, phosphate backbone; CATTTTACCTAACTC, SEQ ID NO 12, intron 19 (e[5mC]eAeTeTeTeTeAe[5mC]e[5mC]eTeAeAe[5mC]eTe[5mC]; splice-switching)”, 25%.

As for “ISIS 414150: uniform 2′-MOE 15-mer, phosphate backbone; ATGAACAACTTCTAA, SEQ ID NO 29, exon 20 (eAeTeGeAeAe[5mC]eAeAe[5mC]eTeTe[5mC]eTeAeA; splice-switching)”, the “% inclusion (exon 20)” value was found to be 5%. The same measure, in the same setting: in the case of “ISIS 414148: uniform 2′-MOE 15-mer, phosphate backbone; TCTAAGTTTCCCCTT, SEQ ID NO 27, exon 20 (eTe[5mC]eTeAeAeGeTeTeTe[5mC]e[5mC]e[5mC]e[5mC]eTeT; splice-switching)” it was 7%. Still for that read-out and setting: for “ISIS 414152: uniform 2′-MOE 15-mer, phosphate backbone; GGGCTCGATGATGAA, SEQ ID NO 31, exon 20 (antisense eGeGeGe[5mC]eTe[5mC]eGeAeTeGeAeTeGeAeA)” the value was 3%; for “ISIS 414155: uniform 2′-MOE 15-mer, phosphate backbone; TCTGAGCTAAAACCA, SEQ ID NO 34, exon 20 (eTe[5mC]eTeGeAeGe[5mC]eTeAeAeAeAe[5mC]e[5mC]eA; splice-switching)”, 6%.

For the substance “ISIS 414141: uniform 2′-MOE 15-mer, phosphate backbone; TTTTAATTAAGTAGA, SEQ ID NO 20, intron 19 (eTeTeTeTeAeAeTeTeAeAeGeTeAeGeA; splice-switching)”, the “% inclusion (exon 20)” value was 24%. Still for that read-out and setting: for “ISIS 414160: uniform 2′-MOE 15-mer, phosphate backbone; TACAATGGCGCTTAC, SEQ ID NO 39, intron 20 (eTeAe[5mC]eAeAeTeGeGe[5mC]eGe[5mC]eTeTeAe[5mC]; splice-switching)” the value was 14%; for “ISIS 414151: uniform 2′-MOE 15-mer, phosphate backbone; CGATGATGAACAACT, SEQ ID NO 30, exon 20 (e[5mC]eGeAeTeGeAeTeGeAeAe[5mC]eAeAe[5mC]eT; splice-switching)”, 0%; for “ISIS 414145: uniform 2′-MOE 15-mer, phosphate backbone; ATAAATTAAAGCAGT, SEQ ID NO 24, intron 19 (eAeTeAeAeAeTeTeAeAeAeGe[5mC]eAeGeT; splice-switching)”, 3%.

Still in this data set, the particulars now being: Table 2 (microwalk experiment); HEK-293 with mt19-21 minigene, 0.007 nmol oligonucleotide by electroporation, RT-PCR two days later.
For “ISIS 421995: uniform 2′-MOE 20-mer, phosphate backbone; CTAGTCGCAAACAGTACAAT, SEQ ID NO 64, intron 20 (e[5mC]eTeAeGeTe[5mC]eGe[5mC]eAeAeAe[5mC]eAeGeTeAe[5mC]eAeAeT; splice-switching)”, the “% inclusion (exon 20)” value is reported as 92%. For “ISIS 414163: uniform 2′-MOE 15-mer, phosphate backbone; ACTAGTCGCAAACAG, SEQ ID NO 42, intron 20 (eAe[5mC]eTeAeGeTe[5mC]eGe[5mC]eAeAeAe[5mC]eAeG; splice-switching)”, the “% inclusion (exon 20)” value was 74%. For the substance “ISIS 421998: uniform 2′-MOE 20-mer, phosphate backbone; TAACTAGTCGCAAACAGTAC, SEQ ID NO 67, intron 20 (eTeAeAe[5mC]eTeAeGeTe[5mC]eGe[5mC]eAeAeAe[5mC]eAeGeTeAe[5mC]; splice-switching)”, the “% inclusion (exon 20)” value is 81%.
